Experimental data reported in patent publication US20260365692A1, “COMPOSITIONS COMPRISING PROTEINS DISSOLVED IN FLUORINATED SOLVENTS, AND METHODS OF MAKING AND USING THE SAME” (priority 2022, published 2026).

What was measured:
[1] = Protein activity after elevated temperature exposure (Example 4); format: physicochemical
Protocol: A group of enzyme proteins, β-Gal and Trypsin was chosen for this study. β-Gal and Trypsin were diluted in PBS or dispersed in PFOc at 1 μM and 10 μM, respectively. Next, a subset of samples was subjected to elevated temperature condition (90 °C) well beyond their native denaturation temperature for 30 minutes. After that, samples were allowed to cool down to room temperature before retrieval. For PFOc samples, proteins were extracted into PBS before performing the ensuing assays. To determine the enzymatic activity, an equal volume of protein samples was added to their substrates dissolved in PBS (4 mg/mL ONPG for β-Gal or 1 mg/mL BAEE for Trypsin). After incubation, ONPG and BAEE substrate conversions were measured by taking absorbance using a microplate reader at 420 nm or 400 nm, respectively. In case of intrinsic fluorescence, GFP was similarly prepared, and heat treated. After GFP samples were retrieved, fluorescent intensity was taken at λex=490 nm, λem=520 nm. The change in protein activity was presented by normalizing to spectrometric readings of each protein dissolved in PBS without being subjected to heat (room temperature). […] This supports the assertion that the fluorous coating and solvent environments, together, serve to constrain the conformational flexibility of the dispersed protein and, as a result, increase its melting temperature.

BSA = BSA (Bos taurus, UniProt P02769); assay: 19F NMR of PFNA with BSA; format: binding, bovine
Excerpt: This further supported the conclusion that, like TFE, adsorption of PFNA to protein surfaces aligned the fluorinated tail parallel to the solvent accessible exterior, with further stabilization via F . . . H bonding with surface N—H groups (FIG. 12, FIGS. 12A-12E, and FIG. 13). This ultimately generated the fluorine rich coating that altered water accessibility and promoted secondary structure.

[2] = tested on: bovine serum albumin (BSA), β-Galactosidase (β-Gal), rabbit serum immunoglobulin (IgG), and bovine trypsin; assay: Dispersion efficiency of four model proteins in PFOc (Example 4); format: physicochemical; conditions: PD:protein molar ratio 1000:1
Protocol: These compounds were screened to evaluate their ability to disperse four model proteins, bovine serum albumin (BSA), β-Galactosidase (β-Gal), rabbit serum immunoglobulin (IgG), and bovine trypsin into the PFOc solvent. […] […] The samples were then briefly vortexed/sonicated then constantly mixed overnight to ensure proper fluorine dispersion. After that, samples were centrifuged at 1950 g for 5 minutes to remove non-dispersed portion, and 100 μL supernatant of dispersed protein sample was transferred into each well of 96-well plate. PFHx solvent was let evaporate at 37 °C for two hours. The remaining protein residue was redissolved in […] PBS, and an equal volume of Coomassie solution was added to the sample. In addition, protein prepared in PBS and PFHx (without PFNA) were also identically processed and included as positive and negative control. Lastly, the amount of protein was quantified by taking absorbance of converted Coomassie solution at 595 nm. Dispersion efficiency was calculated as follows:

[3] = tested on: green fluorescent protein (GFP); assay: Circular dichroism with PFNA, GFP; conditions: increasing PFNA concentration
Excerpt: (§1) FIGS. 14A-14L depict circular dichroism spectra of Hb (FIG. 14A), GFP (FIG. 14B), BSA (FIG. 14C), β-Gal (FIG. 14D), rabbit serum IgG (FIG. 14E), transferrin (FIG. 14F), and urease (FIG. 14G) in the absence (black line) or presence (dashed lines) of PFNA. Increasing dash sequence indicated higher concentration of PFNA. FIG. 14H: Change in molar ellipticity at 216 nm (Δθ216) of PFNA-treated proteins, relative to native controls, as a function of increasing ligand concentration. FIG. 14I: Percentage change in secondary structural motifs of Hb, β-Gal and IgG between the native protein and 1 mM PFNA treated samples. β-sheet structures were further differentiated into parallel and antiparallel conformations. Hb, β-Gal and IgG were prioritized for analysis based on their significant spectral shift in the presence of 1 mM PFNA. FIGS. 14J-14L: Sensograms for BSA (FIG. 14J), β-gal (FIG. 14K), and IgG (FIG. 14L) showing relative response (R.U.) at 10, 25, 50, 75, and 100 μM.
(§2) To explore PFNA-mediated changes in protein structure, dose-response circular dichroism (CD) studies were performed (FIG. 14A-14G). […] Remarkably, these structural changes endured even at sub-stoichiometric PFNA:protein ratios (see 0.001 mM PFNA in […]; protein concentration was constant at 0.01 mM).

urease = assay: Circular dichroism with PFNA, urease
Excerpt: as §1, §2

A549 cells = assay: Annexin V/propidium iodide co-staining of A549 cells; format: cell-based, human; conditions: PFNA
Protocol: FIGS. 20A-20D depicts annexin-V/PI co-staining of A549 cells treated without or with PFNA at 2 and 24 hours. FIGS. 20A-20C: Flow cytometry scatter plots. FIG. 20D: quadrant data comparing the population of unaffected cells (native), to cells displaying lipid translocation (Lip. Tran.) membrane permeabilization (Mem. Perm.), or both.
The ability of PFNA to modulate protein uptake may be explained by the reported anchorage of fluorinated amphiphiles within cell membranes to alter lipid bilayer fluidity and liquid-crystalline phase transitions. To test this assertion, and inform the interpretation of the protein uptake results, the annexin V (AV)/propidium iodide (PI) assay, commonly used to study apoptosis, was repurposed to explore membrane dynamics following PFNA exposure (FIGS. 20A-20D). Here, AV bound phosphatidylserine lipids exposed via inner-to-outer leaflet translocation, while PI positively labeled cells with permeabilized membranes. Comparing dye uptake at early (2 hour) and late (24 hour) PFNA exposure times allowed interpretation of lipid translocation (AV^+, PI^−), membrane permeabilization (AV^−, PI^+), both (AV^+, PI^+), or neither (AV^−, PI^−). […]

Chain of BSA (P02769 25-607): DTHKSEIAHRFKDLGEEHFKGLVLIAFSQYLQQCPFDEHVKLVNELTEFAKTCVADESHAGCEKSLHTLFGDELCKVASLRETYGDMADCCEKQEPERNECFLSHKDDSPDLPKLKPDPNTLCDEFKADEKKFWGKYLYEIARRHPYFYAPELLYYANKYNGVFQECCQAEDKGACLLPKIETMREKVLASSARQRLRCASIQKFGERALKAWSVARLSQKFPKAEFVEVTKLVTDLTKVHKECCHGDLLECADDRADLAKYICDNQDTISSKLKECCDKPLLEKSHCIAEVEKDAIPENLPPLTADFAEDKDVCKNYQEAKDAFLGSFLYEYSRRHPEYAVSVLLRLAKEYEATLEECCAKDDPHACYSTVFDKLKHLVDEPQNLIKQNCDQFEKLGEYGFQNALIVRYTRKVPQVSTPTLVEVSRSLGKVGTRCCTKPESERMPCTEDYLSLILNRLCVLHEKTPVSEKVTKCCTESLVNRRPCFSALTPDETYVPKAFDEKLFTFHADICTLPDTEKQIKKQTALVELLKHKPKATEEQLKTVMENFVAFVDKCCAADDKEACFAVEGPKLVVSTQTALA

| Compound | change in activity after heating ([1]; PFOc dispersed, 90 °C for 30 minutes) | loss of bioactivity after heating ([1]; saline, 90 °C for 30 minutes) | 19F NMR peak change upon interaction (BSA) | dispersion efficiency [2] | CD structural change, GFP (θ216 nm) [3] | CD structural profile, urease (urease) | retention of bioactivity / function at elevated temperature ([1]; proteins dispersed into fluorous solvent using the dispersant, up to 90 °C) | lipid translocation (AV+, PI−) (A549 cells; 2 hours) | lipid translocation and membrane permeability (AV+, PI+) (A549 cells; 24 hours) |
| --- | --- | --- | --- | --- | --- | --- | --- | --- | --- |
| β-Gal: β-Galactosidase (β-Gal), dissolved in PBS/saline or dispersed in PFOc | no statistically significant change in activity | > 90% |  |  |  |  |  |  |  |
| O=C(O)C(F)(F)C(F)(F)C(F)(F)C(F)(F)C(F)(F)C(F)(F)C(F)(F)C(F)(F)F [Compound 7, perfluoronanonic acid] |  |  | broadening of PFNA's peaks | ≤ 50% | slight enhancement of β-sheet structure | remained largely unchanged | structured and functional at temperatures as high as 90 °C | elevated | increased |
